# “And” between values parts separate entries of the source, which are not always exact repeats. Equal entries are not always repeated. Toxic doses and inconclusive results are not listed.
# Tested on: P388 leukemia ip, CD2F1 mice, survival T/C
# Assay: NCI In Vivo Anticancer Drug Screen. Data for tumor model P388 Leukemia (intraperitoneal) in CD2F1 (CDF1) mice
# Conditions: endpoint: median survival time, higher = longer survival
# Summary of the method: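 Mice carrying the transplanted tumor received test compound or vehicle. Survival was recorded in each group, and the value is the treated-group measurement divided by that of the vehicle-treated control group.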
# [1] = dose: 60.0 mg/kg/injection, schedule: Q01DX005 (ip), vehicle: saline with Tween-80
# [2] = dose: 120.0 mg/kg/injection, schedule: Q01DX005 (ip), vehicle: saline with Tween-80
# [3] = dose: 240.0 mg/kg/injection, schedule: Q01DX005 (ip), vehicle: saline with Tween-80
# [4] = dose: 50.0 mg/kg/injection, schedule: Q01DX009 (ip), vehicle: saline
# [5] = dose: 100.0 mg/kg/injection, schedule: Q01DX009 (ip), vehicle: saline
# [6] = dose: 100.0 mg/kg/injection, schedule: Q04DX003 (ip), vehicle: saline
compound,measurement,setting,value
CC(=O)NC(C)(C(C)=O)c1ccccc1 (stereo not drawn),T/C,"dose: 60.0 mg/kg/injection, schedule: Q01DX005 (ip), vehicle: saline",102 % of control
same,T/C,"dose: 120.0 mg/kg/injection, schedule: Q01DX005 (ip), vehicle: saline",107 % of control
same,T/C,"dose: 240.0 mg/kg/injection, schedule: Q01DX005 (ip), vehicle: saline",110 % of control
O=C1CS(=O)(=O)C(c2cccc(F)c2)N1N1C(=O)CS(=O)(=O)C1c1cccc(F)c1 (stereo not drawn),T/C,[1],92 % of control
same,T/C,[2],95 % of control
same,T/C,[3],94 % of control
CC(=O)OC1OC(COS(C)(=O)=O)C(OC(C)=O)C(OS(C)(=O)=O)C1OC(C)=O (stereo not drawn),T/C,[4],92 % of control
same,T/C,[5],118 % of control
same,T/C,"dose: 400.0 mg/kg/injection, schedule: Q01DX009 (ip), vehicle: saline",88 % of control
CN(C)c1ncnc2c1ncn2CC(O)CN (stereo not drawn),T/C,"dose: 50.0 mg/kg/injection, schedule: Q01DX005 (ip), vehicle: distilled water + alcohol",100 % of control
same,T/C,"dose: 100.0 mg/kg/injection, schedule: Q01DX005 (ip), vehicle: distilled water + alcohol",103 % of control
same,T/C,"dose: 200.0 mg/kg/injection, schedule: Q01DX005 (ip), vehicle: distilled water + alcohol",96 % of control
O.O.[Cl][Pt+2][Cl].[NH-]C1CC2CCC1C2.[NH-]C1CC2CCC1C2 (stereo not drawn),T/C,"dose: 33.0 mg/kg/injection, schedule: Q04DX003 (ip), vehicle: saline with Tween-80",154 % of control
same,T/C,"dose: 50.0 mg/kg/injection, schedule: Q04DX003 (ip), vehicle: saline with Tween-80",150 % of control
CC1(C)C(=O)C=CC2(C)C1CC(=O)C1(C)C2CCC2(C)C(c3ccoc3)OC(=O)C3OC321 (stereo not drawn),T/C,"dose: 1.5 mg/kg/injection, schedule: Q01DX009 (ip), vehicle: Klucel (hydroxypropylcellulose) (HPC)",98 % of control and 102 % of control
same,T/C,"dose: 3.0 mg/kg/injection, schedule: Q01DX009 (ip), vehicle: Klucel (hydroxypropylcellulose) (HPC)",98 % of control and 102 % of control
same,T/C,"dose: 6.0 mg/kg/injection, schedule: Q01DX009 (ip), vehicle: Klucel (hydroxypropylcellulose) (HPC)",91 % of control and 96 % of control
same,T/C,"dose: 12.0 mg/kg/injection, schedule: Q01DX009 (ip), vehicle: Klucel (hydroxypropylcellulose) (HPC)",102 % of control and 96 % of control
same,T/C,"dose: 24.0 mg/kg/injection, schedule: Q01DX009 (ip), vehicle: Klucel (hydroxypropylcellulose) (HPC)",100 % of control and 102 % of control
CNC(=O)OCc1c(COC(=O)NC)c(-c2ccc(Br)cc2)n(C)c1C,T/C,"dose: 20.0 mg/kg/injection, schedule: Q01DX009 (ip), vehicle: distilled water + Tween-80",155 % of control
c1ccc2c(-c3nc4ccccc4c4ccccc34)cccc2c1,T/C,"dose: 50.0 mg/kg/injection, schedule: Q01DX005 (ip), vehicle: saline with Tween-80",108 % of control
same,T/C,"dose: 100.0 mg/kg/injection, schedule: Q01DX005 (ip), vehicle: saline with Tween-80",108 % of control
same,T/C,"dose: 200.0 mg/kg/injection, schedule: Q01DX005 (ip), vehicle: saline with Tween-80",95 % of control
CC1=C/C(=N\SC(c2ccccc2)(c2ccccc2)c2ccccc2)CCC1,T/C,"dose: 100.0 mg/kg/injection, schedule: Q04DX002 (ip), vehicle: saline with Tween-80",94 % of control
same,T/C,"dose: 200.0 mg/kg/injection, schedule: Q04DX002 (ip), vehicle: saline with Tween-80",95 % of control
COc1cccc2c1C(=O)c1c(O)c3c(c(O)c1C2=O)C[C@@](O)(C(=O)COC(C)=O)C[C@@H]3OC1CC(N)C(O)C(C)O1 (stereo partly drawn),T/C,"dose: 0.08 mg/kg/injection, schedule: Q01DX009 (ip), vehicle: saline sonified",200 % of control
same,T/C,"dose: 1.5 mg/kg/injection, schedule: Q01DX009 (ip), vehicle: saline sonified",150 % of control
Nc1cccc(SC2CC(=O)N(c3ccc4c(c3)OCO4)C2=O)c1 (stereo not drawn),T/C,"dose: 100.0 mg/kg/injection, schedule: Q04DX003 (ip), vehicle: Klucel (hydroxypropylcellulose) (HPC)",92 % of control
same,T/C,"dose: 200.0 mg/kg/injection, schedule: Q04DX003 (ip), vehicle: Klucel (hydroxypropylcellulose) (HPC)",101 % of control
CCCCCCCCCCCCCC[N+]1(CC)CCCC1,T/C,"dose: 6.25 mg/kg/injection, schedule: Q04DX002 (ip), vehicle: saline",119 % of control
same,T/C,"dose: 12.5 mg/kg/injection, schedule: Q04DX002 (ip), vehicle: saline",86 % of control
O=C(Nc1ccc(F)cc1)N1CCCCC1,T/C,[1],91 % of control
same,T/C,[2],99 % of control
same,T/C,[3],97 % of control
O=C1NC2(c3ccccc3)NC(=O)NC2(c2ccccc2)N1 (stereo not drawn),T/C,[4],99 % of control
same,T/C,[5],93 % of control
same,T/C,"dose: 100.0 mg/kg/injection, schedule: Q04DX003 (ip), vehicle: saline with Tween-80",100 % of control
same,T/C,[6],94 % of control
same,T/C,"dose: 200.0 mg/kg/injection, schedule: Q01DX009 (ip), vehicle: saline",96 % of control
same,T/C,"dose: 200.0 mg/kg/injection, schedule: Q04DX003 (ip), vehicle: saline with Tween-80",100 % of control
same,T/C,"dose: 200.0 mg/kg/injection, schedule: Q04DX003 (ip), vehicle: saline",94 % of control
same,T/C,"dose: 400.0 mg/kg/injection, schedule: Q04DX003 (ip), vehicle: saline with Tween-80",86 % of control
same,T/C,"dose: 400.0 mg/kg/injection, schedule: Q04DX003 (ip), vehicle: saline",92 % of control
CN(C)CCCN1c2ccccc2Sc2ccc(Cl)cc21,T/C,"dose: 1.0 mg/kg/injection, schedule: Q01DX005 (ip), vehicle: saline",99 % of control
same,T/C,"dose: 2.0 mg/kg/injection, schedule: Q01DX005 (ip), vehicle: saline",96 % of control
same,T/C,"dose: 4.0 mg/kg/injection, schedule: Q01DX005 (ip), vehicle: saline",104 % of control
same,T/C,"dose: 6.25 mg/kg/injection, schedule: Q01DX009 (ip), vehicle: saline with Tween-80",95 % of control
same,T/C,"dose: 7.5 mg/kg/injection, schedule: Q04DX003 (ip), vehicle: saline",112 % of control
same,T/C,"dose: 8.0 mg/kg/injection, schedule: Q01DX005 (ip), vehicle: saline",106 % of control
same,T/C,"dose: 12.5 mg/kg/injection, schedule: Q04DX003 (ip), vehicle: Klucel (hydroxypropylcellulose) (HPC)",111 % of control
same,T/C,"dose: 12.5 mg/kg/injection, schedule: Q04DX003 (ip), vehicle: saline",108 % of control and 113 % of control and 120 % of control
same,T/C,"dose: 15.0 mg/kg/injection, schedule: Q04DX003 (ip), vehicle: saline",120 % of control
same,T/C,"dose: 16.0 mg/kg/injection, schedule: Q01DX005 (ip), vehicle: saline",106 % of control
same,T/C,"dose: 25.0 mg/kg/injection, schedule: Q01DX009 (ip), vehicle: saline with Tween-80",100 % of control
same,T/C,"dose: 25.0 mg/kg/injection, schedule: Q04DX003 (ip), vehicle: saline",111 % of control and 114 % of control and 118 % of control
same,T/C,"dose: 32.0 mg/kg/injection, schedule: Q01DX005 (ip), vehicle: saline",116 % of control
same,T/C,"dose: 50.0 mg/kg/injection, schedule: Q04DX003 (ip), vehicle: Klucel (hydroxypropylcellulose) (HPC)",108 % of control
same,T/C,"dose: 50.0 mg/kg/injection, schedule: Q04DX003 (ip), vehicle: saline",105 % of control
same,T/C,"dose: 64.0 mg/kg/injection, schedule: Q01DX005 (ip), vehicle: saline",105 % of control
same,T/C,[6],99 % of control
CC(C)c1cc(C(=O)O)c(O)c(C(C)C)c1.CC(C)c1cc(C(=O)O)c(O)c(C(C)C)c1.[Mn],T/C,"dose: 15.0 mg/kg/injection, schedule: Q01DX005 (ip), vehicle: Klucel (hydroxypropylcellulose) (HPC)",104 % of control and 106 % of control
same,T/C,"dose: 15.0 mg/kg/injection, schedule: Q01DX005 (ip), vehicle: other",101 % of control
same,T/C,"dose: 30.0 mg/kg/injection, schedule: Q01DX005 (ip), vehicle: Klucel (hydroxypropylcellulose) (HPC)",110 % of control and 114 % of control
same,T/C,"dose: 30.0 mg/kg/injection, schedule: Q01DX005 (ip), vehicle: other",105 % of control and 109 % of control
same,T/C,"dose: 60.0 mg/kg/injection, schedule: Q01DX005 (ip), vehicle: Klucel (hydroxypropylcellulose) (HPC)",116 % of control and 117 % of control and 120 % of control
same,T/C,"dose: 60.0 mg/kg/injection, schedule: Q01DX005 (ip), vehicle: other",114 % of control and 95 % of control
same,T/C,"dose: 120.0 mg/kg/injection, schedule: Q01DX005 (ip), vehicle: Klucel (hydroxypropylcellulose) (HPC)",112 % of control and 116 % of control
same,T/C,"dose: 120.0 mg/kg/injection, schedule: Q01DX005 (ip), vehicle: other",114 % of control and 87 % of control
same,T/C,"dose: 240.0 mg/kg/injection, schedule: Q01DX005 (ip), vehicle: other",100 % of control
C=C1C(=O)OC2/C=C(\C)CC/C=C(/C)CC(OC(=O)/C(=C/CO)CO)C12 (stereo not drawn),T/C,"dose: 5.0 mg/kg/injection, schedule: Q01DX009 (ip), vehicle: Klucel (hydroxypropylcellulose) (HPC)",108 % of control and 113 % of control
same,T/C,"dose: 10.0 mg/kg/injection, schedule: Q01DX009 (ip), vehicle: Klucel (hydroxypropylcellulose) (HPC)",106 % of control and 115 % of control (2×)
same,T/C,"dose: 20.0 mg/kg/injection, schedule: Q01DX009 (ip), vehicle: Klucel (hydroxypropylcellulose) (HPC)",106 % of control and 117 % of control
same,T/C,"dose: 40.0 mg/kg/injection, schedule: Q01DX009 (ip), vehicle: Klucel (hydroxypropylcellulose) (HPC)",113 % of control and 117 % of control and 89 % of control

# Source: PubChem BioAssay AID330 (DTP/NCI, 2004)
